The structures appear in SMILES notation. Structures can show the parent of a compound that is named as a salt.

The target in the experiment is T1, Recombinant human renin (Homo sapiens, UniProt P00797).
T1 sequence (P00797 67-406): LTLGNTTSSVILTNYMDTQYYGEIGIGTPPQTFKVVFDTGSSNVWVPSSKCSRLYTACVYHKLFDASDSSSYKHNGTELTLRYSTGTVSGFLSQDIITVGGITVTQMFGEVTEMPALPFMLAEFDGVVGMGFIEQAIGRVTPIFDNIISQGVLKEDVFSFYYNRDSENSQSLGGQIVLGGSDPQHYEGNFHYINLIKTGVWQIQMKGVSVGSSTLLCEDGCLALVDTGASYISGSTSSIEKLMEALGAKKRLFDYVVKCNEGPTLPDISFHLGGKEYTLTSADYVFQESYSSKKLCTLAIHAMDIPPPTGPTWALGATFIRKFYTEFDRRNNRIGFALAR
Briefly: In vitro renin inhibitory activity assay. It is filed as biochemical. Conditions: recombinant human renin 4.2 ng/mL, substrate 4 μM, 37° C., one hour, pH 7.4. As to the method:
Experiment 1: In Vitro Renin Inhibitory Activity Assay
Recombinant human renin (4.2 ng/mL) was reacted in 0.1M HEPES buffer (pH 7.4) containing 0.1M NaCl, 1 mM EDTA and 0.1 mg/mL BSA together with a substrate and a test compound at 37° C. for one hour. As the substrate, Arg-Glu(EDANS)-Ile-His-Pro-Phe-His-Leu-Val-Ile-His-Thr-Lys(DABCYL)-Arg (SEQ ID NO: 1) or DABCYL-γ-Abu-Ile-His-Pro-Phe-His-Leu-Val-Ile-His-Thr-EDANS (SEQ ID NO: 2) was added in such an amount so that the final concentration thereof became 4 μM. The elevated fluorescence intensity at the exciting wavelength 340 nm and the fluorescence wavelength 500 nm was measured by a fluorescence plate reader. The concentration of a test compound to be needed to inhibit an enzyme activity in the presence of a test compound in several concentrations by 50% was calculated as an IC50 value. The test compounds were diluted in DMSO and used in this Experiment.
As a reminder, the IC50 is the concentration that inhibits the measured activity by half. Turning to `CCC(=O)NCCN1C(=O)C(C)(C)Oc2cc(C)c(C(=O)N(C(C)C)C3CCCN(C(=O)OC(C)OC(=O)C4CCOCC4)C3)cc21` (single isomer, unassigned) [Example 88], the IC50 worked out at 9.6 nM.

In the case of `CCC(=O)NCCN1C(=O)C(C)(C)Oc2cc(C)c(C(=O)N(C(C)C)[C@@H]3CCCN(C(=O)OC(C)OC(=O)C(C)C)C3)cc21` (stereo partly drawn) [Example 1, 1-(Isobutyryloxy)ethyl (3R)-3-[isopropyl({2,2,7-trimethyl-3-oxo-4-[2-(propionylamino)ethyl]-3,4-dihydro-2H-1,4-benzoxazin-6-yl}carbonyl)amino]piperidine-1-carboxylate], the half-maximal inhibitory concentration (IC50) turned out to be 160 nM.

On to `CCC(=O)NCCN1C(=O)C(C)(C)Oc2cc(C)c(C(=O)N(C(C)C)[C@@H]3CCCN(C(=O)OCOC(=O)C(C)C)C3)cc21` [Example 4], for which the IC50 worked out at 42 nM.

With `CCC(=O)NCCN1C(=O)C(C)(C)Oc2cc(C)c(C(=O)N(C(C)C)[C@@H]3CCCN(C(=O)OCc4oc(=O)oc4-c4ccccc4)C3)cc21` [Example 7], the IC50 was 1.3 nM.

Take `CCC(=O)NCCN1C(=O)C(C)(C)Oc2cc(C)c(C(=O)N(C(C)C)C3CCCN(C(=O)OC(C)OC(=O)OC(C)C)C3)cc21` (stereo not drawn) [Example 8]: the IC50 came to 410 nM.

With `CCC(=O)NCCN1C(=O)C(C)(C)Oc2cc(C)c(C(=O)N(C(C)C)[C@@H]3CCCN(C(=O)OCOC(=O)OC)C3)cc21` [Example 9], the IC50 turned out to be 140 nM.

As to `CCC(=O)NCCN1C(=O)C(C)(C)Oc2cc(C)c(C(=O)N(C(C)C)[C@@H]3CCCN(C(=O)OCOC(=O)OCC4CC4)C3)cc21` [Example 11], the IC50 was 460 nM.

In the case of `CCC(=O)NCCN1C(=O)C(C)(C)Oc2cc(C)c(C(=O)N(C(C)C)[C@@H]3CCCN(C(=O)OCOC(=O)OC4CCC4)C3)cc21` [Example 12], the IC50 is 160 nM.

On to `CCC(=O)NCCN1C(=O)C(C)(C)Oc2cc(C)c(C(=O)N(C(C)C)[C@@H]3CCCN(C(=O)OCOC(=O)OC4CCOCC4)C3)cc21` [Example 13], for which the IC50 came to 5.1 nM.

Regarding `CCC(=O)NCCN1C(=O)C(C)(C)Oc2cc(C)c(C(=O)N(C(C)C)C3CCCN(C(=O)OC(C)OC(=O)CC)C3)cc21` (stereo not drawn) [Example 18], the IC50 was determined as 3.6 nM.

As to `CCC(=O)NCCN1C(=O)C(C)(C)Oc2cc(C)c(C(=O)N(C(C)C)C3CCCN(C(=O)OC(OC(C)=O)C(C)C)C3)cc21` (stereo not drawn) [Example 19], the IC50 amounted to 11 nM.

`CCC(=O)NCCN1C(=O)C(C)(C)Oc2cc(C)c(C(=O)N(C(C)C)C3CCCN(C(=O)OC(OC(=O)CC)C(C)C)C3)cc21` (stereo not drawn) [Example 20]: the IC50 stood at 91 nM.

As for `CCC(=O)NCCN1C(=O)C(C)(C)Oc2cc(C)c(C(=O)N(C(C)C)[C@@H]3CCCN(C(=O)OC(C)(C)OC(C)=O)C3)cc21` [Example 21, 1-(Acetyloxy)-1-methylethyl (3R)-3-[isopropyl({2,2,7-trimethyl-3-oxo-4-[2-(propionylamino)ethyl]-3,4-dihydro-2H-1,4-benzoxazin-6-yl}carbonyl)amino]piperidine-1-carboxylate], the IC50 stood at 62 nM.

For `CCC(=O)NCCN1C(=O)C(C)(C)Oc2cc(C(F)(F)F)c(C(=O)N(C(C)C)[C@@H]3CCCN(C(=O)[C@@H](N)C(C)C)C3)cc21` [Example 22, N-Isopropyl-2,2-dimethyl-3-oxo-4-[2-(propionylamino)ethyl]-7-(trifluoromethyl)-N-[(3R)-1-L-valylpiperidin-3-yl]-3,4-dihydro-2H-1,4-benzoxazine-6-carboxamide hydrochloride], the IC50 is 85 nM.

Consider `CCC(=O)NCCN1C(=O)C(C)(C)Oc2cc(C(F)(F)F)c(C(=O)N(C(C)C)C3CCCN(C(=O)OC(C)OC(=O)C(C)C)C3)cc21` (stereo not drawn) [Example 26], for which the IC50 worked out at 21 nM.

Regarding `CCC(=O)NCCN1C(=O)C(C)(C)Sc2cc(C(F)(F)F)c(C(=O)N(C(C)C)[C@@H]3CCCN(C(=O)OCc4oc(=O)oc4C)C3)cc21` [Example 30, (5-Methyl-2-oxo-1,3-dioxol-4-yl)methyl (3R)-3-[{[2,2-dimethyl-3-oxo-4-[2-(propionylamino)-ethyl]-7-(trifluoromethyl)-3,4-dihydro-2H-1,4-benzothiazin-6-yl]carbonyl}(isopropyl)amino]-piperidine-1-carboxylate], the IC50 is 2.2 nM.

With `CCC(=O)NCCN1C(=O)C(C)(C)Oc2cc(C(F)(F)F)c(C(=O)N(C(C)C)[C@@H]3CCCN(Cc4oc(=O)oc4C)C3)cc21` [Example 31, N-Isopropyl-2,2-dimethyl-N-{(3R)-1-[(5-methyl-2-oxo-1,3-dioxol-4-yl)methyl]piperidin-3-yl}-3-oxo-4-[2-(propionylamino)ethyl]-7-(trifluoromethyl)-3,4-dihydro-2H-1,4-benzoxazine-6-carboxamide], the IC50 amounted to 0.38 nM.

With `CCC(=O)NCCN1C(=O)C2(CCC2)Oc2cc(C)c(C(=O)N(C(C)C)C3CCCN(C(=O)OC(C)OC(C)=O)C3)cc21` (stereo not drawn) [Example 33], the half-maximal inhibitory concentration (IC50) was 1.2 nM.

In the case of `CCOC(=O)OC(C)OC(=O)N1CCCC(N(C(=O)c2cc3c(cc2C)OC2(CCC2)C(=O)N3CCNC(=O)CC)C(C)C)C1` (stereo not drawn) [Example 34], the IC50 amounted to 140 nM.

On to `CCC(=O)NCCN1C(=O)C2(CCC2)Oc2cc(C)c(C(=O)N(C(C)C)C3CCCN(C(=O)OC(OC(C)=O)C(C)C)C3)cc21` (stereo not drawn) [Example 35], for which the IC50 was found to be 2.7 nM.

With `CCOC(=O)OC(C)OC(=O)N1CCCC(N(C(=O)c2cc3c(cc2C(F)(F)F)OC(C)(COC)C(=O)N3CCNC(=O)CC)C(C)C)C1` (stereo not drawn) [Example 38], the IC50 was 58 nM.

For the compound `Cc1cc2c(cc1C(=O)N(C(C)C)[C@@H]1CCCN(C(=O)OCc3oc(=O)oc3C)C1)N(CCNC(=O)C(F)F)C(=O)C1(CC1)O2` [Example 39], the IC50 turned out to be 3.6 nM.

In the case of `CCC(=O)NCCN1C(=O)C2(CC2)Oc2cc(C)c(C(=O)N(C(C)C)[C@@H]3CCCN(C(=O)OCc4oc(=O)oc4C)C3)cc21` [Example 40], the IC50 is 2.6 nM.

As for `CCC(=O)NCCN1C(=O)C2(CC2)Oc2cc(C)c(C(=O)N(C(C)C)C3CCCN(C(=O)OC(C)OC(=O)CC)C3)cc21` (stereo not drawn) [Example 41], the half-inhibitory concentration (IC50) was 68 nM.

On to `CCC(=O)NCCN1C(=O)C2(CC2)Oc2cc(C)c(C(=O)N(C(C)C)C3CCCN(C(=O)OC(C)OC(=O)C(C)C)C3)cc21` (stereo not drawn) [Example 42], for which the concentration for half-maximal inhibition (IC50) is 15 nM.

`CCC(=O)NCCN1C(=O)C2(CC2)Oc2cc(C)c(C(=O)N(C(C)C)C3CCCN(C(=O)OC(C)OC(=O)C4CCOCC4)C3)cc21` (stereo not drawn) [Example 43]: the IC50 was determined as 69 nM.

As for `Cc1cc2c(cc1C(=O)N(C(C)C)[C@@H]1CCCN(C(=O)OCc3oc(=O)oc3C)C1)N(CCNC(=O)C(F)F)C(=O)C1(CCC1)O2` [Example 44], the IC50 stood at 1.9 nM.

In the case of `CCC(=O)NCCN1C(=O)C2(CCC2)Oc2cc(C)c(C(=O)N(C(C)C)C3CCCN(C(=O)OC(OC(=O)C(C)C)C(C)C)C3)cc21` (stereo not drawn) [Example 45], the IC50 was 52 nM.

In the case of `CCC(=O)NCCN1C(=O)C2(CCC2)Oc2cc(C)c(C(=O)N(C(C)C)C3CCCN(C(=O)OC(OC(=O)CC)C(C)C)C3)cc21` (stereo not drawn) [Example 46], the IC50 amounted to 74 nM.

Take `CCC(=O)NCCN1C(=O)C2(CCC2)Oc2cc(C)c(C(=O)N(C(C)C)C3CCCN(C(=O)OC(C)OC(=O)C(C)C)C3)cc21` (stereo not drawn) [Example 47]: the IC50 was 76 nM.

`CCC(=O)NCCN1C(=O)C2(CCC2)Oc2cc(C)c(C(=O)N(C(C)C)C3CCCN(C(=O)OC(C)OC(=O)C4CCOCC4)C3)cc21` (stereo not drawn) [Example 48]: the concentration for half-maximal inhibition (IC50) was 340 nM.

Consider `CCC(=O)NCCN1C(=O)C2(CCC2)Oc2cc(C)c(C(=O)N(C(C)C)C3CCCN(C(=O)OC(C)OC(=O)COC)C3)cc21` (stereo not drawn) [Example 49], for which the concentration for half-maximal inhibition (IC50) amounted to 14 nM.

Consider `CCC(=O)NCCN1C(=O)C2(CCC2)Oc2cc(C)c(C(=O)N(C(C)C)C3CCCN(C(=O)OC(C)OC(=O)CC(C)(C)O)C3)cc21` (stereo not drawn) [Example 50], for which the IC50 amounted to 15 nM.

Turning to `CCC(=O)NCCN1C(=O)C(C)(C)Oc2cc(C)c(C(=O)N(C(C)C)[C@@H]3CCCN(C(=O)O[C@@H](C)OC(=O)CC)C3)cc21` [Example 52], the IC50 was 42 nM.

With `CCC(=O)NCCN1C(=O)C(C)(C)Oc2cc(C)c(C(=O)N(C(C)C)[C@@H]3CCCN(C(=O)O[C@H](C)OC(=O)CC)C3)cc21` [Example 53], the IC50 came out at 48 nM.

As for `CCC(=O)NCCN1C(=O)C(C)(C)Oc2cc(C)c(C(=O)N(C(C)C)C3CCCN(C(=O)OC(C)OC(=O)OC4CCCCC4)C3)cc21` (stereo not drawn) [Example 54], the IC50 came out at 13 nM.

As to `CCC(=O)NCCN1C(=O)C(C)(C)Oc2cc(C)c(C(=O)N(C(C)C)C3CCCN(C(=O)OC(C)OC(=O)c4cccnc4)C3)cc21` (stereo not drawn) [Example 59], the concentration for half-maximal inhibition (IC50) is 38 nM.

On to `CCC(=O)NCCN1C(=O)C(C)(C)Oc2cc(C)c(C(=O)N(C(C)C)C3CCCN(C(=O)OC(C)OC(=O)C4CCOCC4)C3)cc21` (stereo not drawn) [Example 60], for which the IC50 was 3.2 nM.

Regarding `CCC(=O)NCCN1C(=O)C(C)(C)Oc2cc(C)c(C(=O)N(C(C)C)C3CCCN(C(=O)OC(C)OC(=O)C(N)C(C)C)C3)cc21` (stereo not drawn) [Example 62], the IC50 came to 2.8 nM.

For the origin of these results see patent US8658639B2, “N-substituted-cyclic amino derivative” (Dainippon Sumitomo Pharma Co., Ltd, priority 2009, dated 2014).
